The record followed here is US12559529B2, “NPY2 receptor agonists” (Boehringer Ingelheim International GmbH, priority 2019, dated 2026).

*1 amine or outer side, *2 acyl side, *3 side chain or, on linkers, in order; H or OH if unused. Where a SMILES comes first, the peptide text is derived from it. Side-chain parts run from the residue outwards. The star is where a group is joined. C18 diacid = O=C(O)CCCCCCCCCCCCCCCCC(=O)*; γGlu = O=C(O)[C@H](CCC(=O)[*:2])N[*:1]; Isovaleryl = CC(C)CC(=O)*; AEEA = NCCOCCOCC(=O)O

This test concerns the target T1, Human Neuropeptide Y2 Receptor (Homo sapiens, UniProt P49146).
T1 construct: purchased CHEMICON HTS066M
T1 sequence (P49146 1-381): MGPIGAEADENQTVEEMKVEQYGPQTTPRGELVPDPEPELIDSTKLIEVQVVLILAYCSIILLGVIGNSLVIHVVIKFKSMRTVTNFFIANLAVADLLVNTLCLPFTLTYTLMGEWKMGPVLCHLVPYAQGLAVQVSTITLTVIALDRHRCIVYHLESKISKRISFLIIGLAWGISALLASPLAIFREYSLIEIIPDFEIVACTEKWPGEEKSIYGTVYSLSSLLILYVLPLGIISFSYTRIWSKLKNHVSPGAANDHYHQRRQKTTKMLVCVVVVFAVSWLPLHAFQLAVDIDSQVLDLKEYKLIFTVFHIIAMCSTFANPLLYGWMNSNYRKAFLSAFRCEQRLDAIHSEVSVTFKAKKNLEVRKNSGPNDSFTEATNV
Description: Radioligand binding competition assay (RLB). The settings on record: Table 3; human 125I-PYY (1-36) 0.02 nM, Y2 receptor membranes; read-out: Ki. In a few lines:
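Filtration format; Y2R membrane prep 0.5 μg/well; buffer 50 mM HEPES/5 mM MgCl2/1 mM CaCl2/0.2% ovalbumin pH 7.4; 2 h RT, shaking. Harvest on PEI-soaked GF/C, ice-cold HEPES/500 mM NaCl washes, scintillation count. IC50 by nonlinear fit.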
`CC(C)CC(=O)N[C@@H](C)C(=O)N1CCC[C@H]1C(=O)N[C@@H](CCC(=O)O)C(=O)N[C@@H](CCCCNC(=O)COCCOCCNC(=O)COCCOCCNC(=O)CC[C@H](NC(=O)CCCCCCCCCCCCCCCCC(=O)O)C(=O)O)C(=O)N1CCC[C@H]1C(=O)NCC(=O)N[C@@H](CCC(=O)O)C(=O)N[C@@H](CCC(=O)O)C(=O)N[C@@H](C)C(=O)N[C@@H](CO)C(=O)N1CCC[C@H]1C(=O)N[C@@H](CCC(=O)O)C(=O)N[C@@H](CCC(=O)O)C(=O)N[C@@H](CC(C)C)C(=O)N[C@@H](CCC(=O)O)C(=O)N[C@@H](CCC(N)=O)C(=O)N[C@@H](Cc1ccc(O)cc1)C(=O)N[C@@H](Cc1ccc(O)cc1)C(=O)N[C@H](C(=O)N[C@@H](CO)C(=O)N[C@@H](CC(C)C)C(=O)N[C@@H](CCCNC(=N)N)C(=O)N[C@@H](Cc1c[nH]cn1)C(=O)N[C@@H](Cc1ccc(O)cc1)C(=O)N[C@@H](Cc1ccc(O)cc1)C(=O)N[C@@H](CC(N)=O)C(=O)N[C@@H](Cc1c[nH]c2ccccc12)C(=O)N[C@@H](CC(C)C)C(=O)N[C@H](C(=O)N[C@@H](CCCNC(=N)N)C(=O)N[C@@H](CCC(N)=O)C(=O)N[C@@H](CCCNC(=N)N)C(=O)N[C@@H](Cc1ccc(O)cc1)C(N)=O)[C@@H](C)O)C(C)C` [Compound 224, N{alpha-4}-(3-methylbutanoyl)-N{epsilon-7}-[2-(2-{2-[2-(2-{2-[(4S)-4-carboxy-4-(17-carboxyheptadecanamido)butanamido]ethoxy}ethoxy)acetamido]ethoxy}ethoxy)acetamido]-[4A,7K,11E,18E,19Q,22V,28Y,30W,31L]hPYY (4-36)] (Isovaleryl-APEK([AEEA-AEEA-γGlu-C18 diacid])PGEEASPEELEQYYVSLRHYYNWLTRQRY-NH2): the Ki is 4.64 nM.

As for `CC(C)CC(=O)N[C@@H](C)C(=O)N1CCC[C@H]1C(=O)N[C@@H](CCC(=O)O)C(=O)N[C@@H](CCCCNC(=O)COCCOCCNC(=O)COCCOCCNC(=O)CC[C@H](NC(=O)CCCCCCCCCCCCCCCCC(=O)O)C(=O)O)C(=O)N1CCC[C@H]1C(=O)N[C@@H](CCC(=O)O)C(=O)N[C@@H](CCC(=O)O)C(=O)N[C@@H](C)C(=O)N[C@@H](C)C(=O)N[C@@H](CO)C(=O)N1CCC[C@H]1C(=O)N[C@@H](CCC(=O)O)C(=O)N[C@@H](CCC(=O)O)C(=O)N[C@@H](CC(C)C)C(=O)N[C@@H](CCC(N)=O)C(=O)N[C@@H](CCCNC(=N)N)C(=O)N[C@@H](Cc1ccc(O)cc1)C(=O)N[C@@H](Cc1ccc(O)cc1)C(=O)N[C@H](C(=O)N[C@@H](CO)C(=O)N[C@@H](CC(C)C)C(=O)N[C@@H](CCCNC(=N)N)C(=O)N[C@@H](Cc1c[nH]cn1)C(=O)N[C@@H](Cc1ccc(O)cc1)C(=O)N[C@@H](Cc1ccc(O)cc1)C(=O)N[C@@H](CC(N)=O)C(=O)N[C@@H](Cc1c[nH]c2ccccc12)C(=O)N[C@@H](CC(C)C)C(=O)N[C@H](C(=O)N[C@@H](CCCNC(=N)N)C(=O)N[C@@H](CCC(N)=O)C(=O)N[C@@H](CCCNC(=N)N)C(=O)N[C@@H](Cc1ccc(O)cc1)C(N)=O)[C@@H](C)O)C(C)C` [Compound 109, N{alpha-4}-(3-methylbutanoyl)-N{epsilon-7}-[2-(2-{2-[2-(2-{2-[(4S)-4-carboxy-4-(17-carboxyheptadecanamido)butanamido]ethoxy}ethoxy)acetamido]ethoxy}ethoxy)acetamido]-[4A,7K,9E,11A,18Q,22V,28Y,30W,31L]hPYY (4-36)], the inhibitory constant (Ki) amounted to 0.94 nM. With `CC(C)CC(=O)N[C@@H](C)C(=O)N1CCC[C@H]1C(=O)N[C@@H](CCC(=O)O)C(=O)N[C@@H](CCCCNC(=O)COCCOCCNC(=O)COCCOCCNC(=O)CC[C@H](NC(=O)CCCCCCCCCCCCCCCCC(=O)O)C(=O)O)C(=O)N1CCC[C@H]1C(=O)N[C@@H](CCC(=O)O)C(=O)N[C@@H](CCC(=O)O)C(=O)N[C@@H](CC(=O)O)C(=O)N[C@@H](C)C(=O)N[C@H](C(=O)N1CCC[C@H]1C(=O)N[C@@H](CCC(=O)O)C(=O)N[C@@H](CCC(=O)O)C(=O)N[C@H](C(=O)N[C@@H](CCC(N)=O)C(=O)N[C@@H](CCCNC(=N)N)C(=O)N[C@@H](Cc1ccc(O)cc1)C(=O)N[C@@H](Cc1ccc(O)cc1)C(=O)N[C@H](C(=O)N[C@@H](CO)C(=O)N[C@@H](CC(C)C)C(=O)N[C@@H](CCCNC(=N)N)C(=O)N[C@@H](Cc1c[nH]cn1)C(=O)N[C@@H](Cc1ccc(O)cc1)C(=O)N[C@@H](Cc1ccc(O)cc1)C(=O)N[C@@H](CC(N)=O)C(=O)N[C@@H](Cc1c[nH]c2ccccc12)C(=O)N[C@@H](CC(C)C)C(=O)N[C@H](C(=O)N[C@@H](CCCNC(=N)N)C(=O)N[C@@H](CCC(N)=O)C(=O)N[C@@H](CCCNC(=N)N)C(=O)N[C@@H](Cc1ccc(O)cc1)C(N)=O)[C@@H](C)O)C(C)C)[C@@H](C)O)[C@@H](C)O` [Compound 40, N{alpha-4}-(3-methylbutanoyl)-N{epsilon-7}-[2-(2-{2-[2-(2-{2-[(4S)-4-carboxy-4-(17-carboxyheptadecanamido)butanamido]ethoxy}ethoxy)acetamido]ethoxy}ethoxy)acetamido]-[4A,7K,9E,13T,17T,18Q,22V,28Y,30W,31L]hPYY (4-36)], the Ki turned out to be 1.21 nM.

As to `CC(C)CC(=O)N[C@@H](C)C(=O)N1CCC[C@H]1C(=O)N[C@@H](CCC(=O)O)C(=O)N[C@@H](CCCCNC(=O)COCCOCCNC(=O)COCCOCCNC(=O)CC[C@H](NC(=O)CCCCCCCCCCCCCCCCC(=O)O)C(=O)O)C(=O)N1CCC[C@H]1C(=O)N1CCC[C@H]1C(=O)N[C@@H](CCC(=O)O)C(=O)N[C@@H](CC(=O)O)C(=O)N[C@@H](C)C(=O)N[C@@H](CO)C(=O)N1CCC[C@H]1C(=O)N[C@@H](CCC(=O)O)C(=O)N[C@@H](CCC(=O)O)C(=O)N[C@@H](CC(C)C)C(=O)N[C@@H](CCC(N)=O)C(=O)N[C@@H](CCCNC(=N)N)C(=O)N[C@@H](Cc1ccc(O)cc1)C(=O)N[C@@H](Cc1ccc(O)cc1)C(=O)N[C@H](C(=O)N[C@@H](CO)C(=O)N[C@@H](CC(C)C)C(=O)N[C@@H](CCCNC(=N)N)C(=O)N[C@@H](Cc1c[nH]cn1)C(=O)N[C@@H](Cc1ccc(O)cc1)C(=O)N[C@@H](Cc1ccc(O)cc1)C(=O)N[C@@H](CC(N)=O)C(=O)N[C@@H](Cc1c[nH]c2ccccc12)C(=O)N[C@@H](CC(C)C)C(=O)N[C@H](C(=O)N[C@@H](CCCNC(=N)N)C(=O)N[C@@H](CCC(N)=O)C(=O)N[C@@H](CCCNC(=N)N)C(=O)N[C@@H](Cc1ccc(O)cc1)C(N)=O)[C@@H](C)O)C(C)C` [Compound 183, N{alpha-4}-(3-methylbutanoyl)-N{epsilon-7}-[2-(2-{2-[2-(2-{2-[(4S)-4-carboxy-4-(17-carboxyheptadecanamido)butanamido]ethoxy}ethoxy)acetamido]ethoxy}ethoxy)acetamido]-[4A,7K,9P,18Q,22V,28Y,30W,31L]hPYY (4-36)], the inhibitory constant (Ki) was 0.7 nM. Under `CC(C)CC(=O)N[C@@H](C)C(=O)N1CCC[C@H]1C(=O)N[C@@H](CCC(=O)O)C(=O)N[C@@H](CCCCNC(=O)COCCOCCNC(=O)COCCOCCNC(=O)CC[C@H](NC(=O)CCCCCCCCCCCCCCCCC(=O)O)C(=O)O)C(=O)N1CCC[C@H]1C(=O)N[C@@H](CCC(=O)O)C(=O)N[C@@H](CCC(=O)O)C(=O)N[C@@H](CC(=O)O)C(=O)N[C@@H](CO)C(=O)N[C@@H](CO)C(=O)N1CCC[C@H]1C(=O)N[C@@H](C)C(=O)N[C@@H](CCC(=O)O)C(=O)N[C@@H](CC(C)C)C(=O)N[C@@H](CCC(N)=O)C(=O)N[C@@H](CCCNC(=N)N)C(=O)N[C@@H](Cc1ccc(O)cc1)C(=O)N[C@@H](Cc1ccc(O)cc1)C(=O)N[C@H](C(=O)N[C@@H](CO)C(=O)N[C@@H](CC(C)C)C(=O)N[C@@H](CCCNC(=N)N)C(=O)N[C@@H](Cc1c[nH]cn1)C(=O)N[C@@H](Cc1ccc(O)cc1)C(=O)N[C@@H](Cc1ccc(O)cc1)C(=O)N[C@@H](CC(N)=O)C(=O)N[C@@H](Cc1c[nH]c2ccccc12)C(=O)N[C@@H](CC(C)C)C(=O)N[C@H](C(=O)N[C@@H](CCCNC(=N)N)C(=O)N[C@@H](CCC(N)=O)C(=O)N[C@@H](CCCNC(=N)N)C(=O)N[C@@H](Cc1ccc(O)cc1)C(N)=O)[C@@H](C)O)C(C)C` [Compound 87, N{alpha-4}-(3-methylbutanoyl)-N{epsilon-7}-[2-(2-{2-[2-(2-{2-[(4S)-4-carboxy-4-(17-carboxyheptadecanamido)butanamido]ethoxy}ethoxy)acetamido]ethoxy}ethoxy)acetamido]-[4A,7K,9E,12S,15A,18Q,22V,28Y,30W,31L]hPYY (4-36)] (Isovaleryl-APEK([AEEA-AEEA-γGlu-C18 diacid])PEEDSSPAELQRYYVSLRHYYNWLTRQRY-NH2) stands 1.97 nM.
